In patent publication US8362000B2, “Azetidinyl diamides as monoacylglycerol lipase inhibitors” (Janssen Pharmaceutica NV, priority 2009, dated 2013):
Numbering of substitutions follows the chain as printed. pIC50, pKd: −log10 of the molar value. Like-named read-outs stand apart in the source and are kept apart here.

Assays:
mutant MGL = molecular target: T1, mutant MGL (Homo sapiens, UniProt Q99685, L169S/L176S); assay: MGL ThermoFluor assay - mutant; assay type: binding; conditions: for Kd: read-out: MGL mutant ThermoFluor qKd (μM) (using qNMR conc.)
T1 sequence (Q99685 1-303 L169S/L176S): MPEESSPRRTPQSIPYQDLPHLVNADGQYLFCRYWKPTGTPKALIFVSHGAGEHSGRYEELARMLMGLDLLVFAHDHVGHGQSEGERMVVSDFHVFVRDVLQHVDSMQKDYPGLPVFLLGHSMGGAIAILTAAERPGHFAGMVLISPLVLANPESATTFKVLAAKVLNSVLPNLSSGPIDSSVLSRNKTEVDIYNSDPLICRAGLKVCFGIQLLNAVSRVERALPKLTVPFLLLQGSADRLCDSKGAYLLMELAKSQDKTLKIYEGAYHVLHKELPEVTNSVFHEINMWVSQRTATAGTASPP

[1] = molecular target: T2, purified wild type MGL (wt-MGLL 6H-11-313) (Homo sapiens, UniProt Q99685)
T2 sequence (Q99685 1-303): T1 sequence (Q99685 1-303 L169S/L176S) with S169L, S176L

[2] = ThermoFluor thermal stability binding assay, read-out: MGL mutant ThermoFluor Kd
[3] = ThermoFluor concentration-response, read-out: MGL mutant ThermoFluor Kd
[4] = ThermoFluor, compound concentration measured by qNMR
[5] = ThermoFluor, compound concentration measured by qNMR, read-out: MGL mutant ThermoFluor qKd (using qNMR conc.)
[6] = compound concentration measured by qNMR, read-out: MGL mutant ThermoFluor qKd (using qNMR conc.)

| SMILES | pIC50 [1] | pKd (mutant MGL; [3]) | further results |
| --- | --- | --- | --- |
| O=C(c1cscn1)N1CCN(C2CN(C(=O)c3cccc4nc(-c5cccc(Cl)c5)oc34)C2)CC1 [Cpd 1238] | 6.36 |  | pKd (mutant MGL; [2]): 6.90 |
| O=C(c1cccc(-c2ccc(F)cc2F)c1)N1CC(N2CCN(C(=O)c3cscn3)CC2)C1 [Cpd 1239] | 6.35 | 5.52 |  |
| O=C(c1cscn1)N1CCN(C2CN(C(=O)c3cccc(-c4ccccc4)c3F)C2)CC1 [Cpd 1240] | 6.34 | 5.60 |  |
| O=C(c1ccc(-c2ccccc2)cc1)N1CCN(C2CN(C(=O)c3cccc(F)c3)C2)CC1 [Cpd 1242, 1-(Biphenyl-4-ylcarbonyl)-4-{1-[(3-fluorophenyl)carbonyl]azetidin-3-yl}piperazine] | 6.34 | 6.71 |  |
| O=C(c1ccc(-c2cccc(C(F)(F)F)c2)cc1)N1CCN(C2CN(C(=O)c3cc[nH]c3)C2)CC1 [Cpd 1243, 1-[1-(1H-Pyrrol-3-ylcarbonyl)azetidin-3-yl]-4-{[3′-(trifluoromethyl)biphenyl-4-yl]carbonyl}piperazine] | 6.33 | 7.48 |  |
| O=C(c1cc2ccc(-c3cccnc3F)cc2[nH]1)N1CC(N2CCN(C(=O)c3nccs3)CC2)C1 [Cpd 1244] | 6.33 |  | Kd (mutant MGL; [4]): 0.589 µM |
| O=C(c1ccc(-c2ccccc2)cc1)N1CCN(C2CN(C(=O)c3cscn3)C2)CC1 [Cpd 1246, 1-(Biphenyl-4-ylcarbonyl)-4-[1-(1,3-thiazol-4-ylcarbonyl)azetidin-3-yl]piperazine] | 6.30 | 7.38 |  |
| O=C(c1ccc2c(ccn2-c2cccnc2)c1)N1CC(N2CCN(C(=O)c3ccc[nH]3)CC2)C1 [Cpd 1247, 1-Pyridin-3-yl-5-({3-[4-(1H-pyrrol-2-ylcarbonyl)piperazin-1-yl]azetidin-1-yl}carbonyl)-1H-indole] | 6.27 |  | pKd (mutant MGL; [5]): 6.19 |
| O=C(c1ccc(-n2ccc(C(F)(F)F)n2)cc1)N1CC(N2CCN(C(=O)c3nccs3)CC2)C1 [Cpd 1249] | 6.22 | 6.62 |  |
| O=C(c1nccs1)N1CCN(C2CN(C(=O)c3cccc4oc(-c5cccnc5)nc34)C2)CC1 [Cpd 1251] | 6.16 |  | pKd (mutant MGL; [2]): 6.84 |
| O=C(c1nccs1)N1CCN(C2CN(C(=O)c3cccc4nc(-c5ccco5)[nH]c34)C2)CC1 [Cpd 1252] | 6.15 |  | pKd (mutant MGL; [2]): 6.41 |
| O=C(c1ccc(-c2ccccc2)cc1)N1CC(N2CCN(C(=O)C3CC3(F)F)CC2)C1 (stereo not drawn) [Cpd 1256] | 6.09 |  | pKd (mutant MGL; [2]): 6.41 |
| O=C(c1nccs1)N1CCN(C2CN(C(=O)c3cccc4oc(-c5ccc(F)cc5)nc34)C2)CC1 [Cpd 1257] | 6.08 |  | pKd (mutant MGL; [2]): 8.05 |
| O=C(c1ccc(-c2cccc(C(F)(F)F)c2)cc1)N1CCN(C2CN(C(=O)c3cocn3)C2)CC1 [Cpd 1258] | 6.08 |  | pKd (mutant MGL; [2]): 7.70 |
| Cc1cc(-c2cccc(C(F)(F)F)c2)ccc1C(=O)N1CCN(C2CN(C(=O)c3nccs3)C2)CC1 [Cpd 1260] | 6.06 | 6.66 |  |
| O=C(c1cscn1)N1CCN(C2CN(C(=O)c3cc(-c4ccccc4)n(-c4ccccc4)n3)C2)CC1 [Cpd 1261] | 6.03 |  | pKd (mutant MGL; [2]): 6.08 |
| O=C(c1ccc(-c2ccccc2)cc1)N1CC(N2CCN(C(=O)c3ccon3)CC2)C1 [Cpd 1262] | 6.02 |  | pKd (mutant MGL; [2]): 6.56 |
| O=C(c1ccc2c(ccn2-c2cncnc2)c1)N1CC(N2CCN(C(=O)c3nccs3)CC2)C1 [Cpd 1263, 1-Pyrimidin-5-yl-5-({3-[4-(1,3-thiazol-2-ylcarbonyl)piperazin-1-yl]azetidin-1-yl}carbonyl)-1H-indole] | 6.01 |  | pKd (mutant MGL; [5]): 6.67 |
| Cc1nc2cc(C(=O)N3CC(N4CCN(C(=O)c5cscn5)CC4)C3)ccc2n1-c1ccc(F)c(F)c1 [Cpd 1264] | 6.01 |  | pKd (mutant MGL; [6]): 6.60 |
| O=C(c1nccs1)N1CC(N2CCN(C(=O)c3ccc(-c4ccccc4)cc3)C(Cc3ccccc3)C2)C1 (stereo not drawn) [Cpd 1266, 2-Benzyl-1-(biphenyl-4-ylcarbonyl)-4-[1-(1,3-thiazol-2-ylcarbonyl)azetidin-3-yl]piperazine] | 5.97 | 7.49 |  |
| O=C(c1ccc(-c2ccc(C(F)(F)F)s2)cc1)N1CC(N2CCN(C(=O)c3cncs3)CC2)C1 [Cpd 1268] | 5.91 |  | pKd (mutant MGL; [6]): 7.41 |
| O=C(c1ccc(-c2ccccc2)cc1)N1CC(N2CCN(C(=O)c3c[nH]nn3)CC2)C1 [Cpd 1269] | 5.90 |  | pKd (mutant MGL; [2]): 5.93 |
| O=C(c1ccc2[nH]c(-c3ccccc3)nc2c1)N1CCN(C2CN(C(=O)c3nccs3)C2)CC1 [Cpd 1271] | 5.80 | 6.00 |  |
| Cc1nc(-c2ccncc2)sc1C(=O)N1CC(N2CCN(C(=O)c3nccs3)CC2)C1 [Cpd 1272] | 5.79 |  | pKd (mutant MGL; [5]): 6.40 |

| SMILES | pIC50 [1] | pKd (mutant MGL; [3]) | further results |
| --- | --- | --- | --- |
| O=C(c1cc(F)cc(-c2ccccc2)c1)N1CC(N2CCN(C(=O)c3cscn3)CC2)C1 [Cpd 1273] | 5.79 | 5.74 |  |
| O=C(c1ccc(-c2ccccc2)cc1)N1CCN(C2CN(C(=O)c3csnn3)C2)CC1 [Cpd 1276, 1-(Biphenyl-4-ylcarbonyl)-4-[1-(1,2,3-thiadiazol-4-ylcarbonyl)azetidin-3-yl]piperazine] | 5.75 | 6.09 |  |
| O=C(c1cnc2ccn(-c3ccc(F)cc3)c2c1)N1CC(N2CCN(C(=O)c3nccs3)CC2)C1 [Cpd 1277] | 5.74 |  | Kd (mutant MGL; [4]): 2.72 µM |
| O=C(c1cccc(-c2ccc(C(F)(F)F)cc2)c1)N1CC(N2CCN(C(=O)c3cscn3)CC2)C1 [Cpd 1278] | 5.73 | 5.28 |  |
| O=C(c1cscn1)N1CCN(C2CN(C(=O)c3cn(-c4cccc(F)c4)c4ccccc34)C2)CC1 [Cpd 1279] | 5.72 |  | Kd (mutant MGL; [4]): 1.86 µM |
| O=C(c1cscn1)N1CCN(C2CN(C(=O)c3cc(-c4ccccc4)ccc3F)C2)CC1 [Cpd 1280] | 5.70 | 5.19 |  |
| O=C(c1cscn1)N1CC(N2CCN(C(=O)c3ccc(-c4ccccc4)cc3)C(Cc3ccccc3)C2)C1 (stereo not drawn) [Cpd 1284, 2-Benzyl-1-(biphenyl-4-ylcarbonyl)-4-[1-(1,3-thiazol-4-ylcarbonyl)azetidin-3-yl]piperazine] | 5.64 | 7.39 |  |
| Cc1c(C(=O)N2CC(N3CCN(C(=O)c4cscn4)CC3)C2)cccc1-c1ccccc1 [Cpd 1285] | 5.64 | 5.61 |  |
| O=C(c1ccc(-c2ccccc2)cc1)N1CCN(C2CN(C(=O)c3cscn3)C2)C2(CC2)C1 [Cpd 1286] | 5.62 |  | pKd (mutant MGL; [2]): 7.49 |
| Cc1nc(-c2ccccc2F)sc1C(=O)N1CC(N2CCN(C(=O)c3cscn3)CC2)C1 [Cpd 1287] | 5.61 | 6.31 |  |
| O=C(c1cscn1)N1CCN(C2CN(C(=O)c3cc(-c4ccccc4)ccc3Cl)C2)CC1 [Cpd 1288] | 5.60 | 5.67 |  |
| Cc1nc2cc(C(=O)N3CC(N4CCN(C(=O)c5cscn5)CC4)C3)ccc2n1-c1ccc(C(F)(F)F)cc1 [Cpd 1289] | 5.58 |  | pKd (mutant MGL; [6]): 6.89 |
| O=C(c1cscn1)N1CCN(C2CN(C(=O)c3cccc4[nH]c(-c5ccc(Cl)cc5)nc34)C2)CC1 [Cpd 1290] | 5.57 |  | pKd (mutant MGL; [2]): 6.19 |
| Cc1nc2cc(C(=O)N3CC(N4CCN(C(=O)c5cscn5)CC4)C3)ccc2n1-c1ccc(F)cc1 [Cpd 1291] | 5.56 |  | pKd (mutant MGL; [6]): 6.75 |
| O=C(c1ccc(-c2ccccc2)cc1)N1CCN(C2CN(C(=O)c3cc[nH]c3)C2)CC1 [Cpd 1292, 1-(Biphenyl-4-ylcarbonyl)-4-[1-(1H-pyrrol-3-ylcarbonyl)azetidin-3-yl]piperazine] | 5.51 | 6.20 |  |
| O=C(c1ccc(-n2cnc3ccccc32)cc1)N1CC(N2CCN(C(=O)c3cscn3)CC2)C1 [Cpd 1293] | 5.50 | 5.78 |  |
| O=C(c1nc2cc(-c3ccc(F)cc3)ccc2[nH]1)N1CC(N2CCN(C(=O)c3nccs3)CC2)C1 [Cpd 1294, 5-(4-Fluorophenyl)-2-({3-[4-(1,3-thiazol-2-ylcarbon-yl)piperazin-1-yl]azetidin-1-yl}carbonyl)-1H-benzimidazole] | 5.49 |  | Kd (mutant MGL; [4]): 4.41 µM |
| O=C(c1cscn1)N1CCN(C2CN(C(=O)c3cn(-c4ccc(F)cc4)c4ccccc34)C2)CC1 [Cpd 1295] | 5.48 |  | Kd (mutant MGL; [4]): 1.51 µM |
| Cc1nc2cc(C(=O)N3CC(N4CCN(C(=O)c5cscn5)CC4)C3)ccc2n1-c1ccccc1 [Cpd 1296] | 5.48 |  | pKd (mutant MGL; [6]): 6.71 |
| O=C(c1ccc(-n2cnc3ccccc32)cc1)N1CCN(C2CN(C(=O)c3nccs3)C2)CC1 [Cpd 1298] | 5.41 | 6.32 |  |
| O=C(c1ccc2[nH]c(-c3ccccc3)nc2c1)N1CC(N2CCN(C(=O)c3cscn3)CC2)C1 [Cpd 1299] | 5.41 | 5.96 |  |
| O=C(c1cnn(-c2ccccc2)n1)N1CC(N2CCN(C(=O)c3nccs3)CC2)C1 [Cpd 1300] | 5.38 | 5.48 |  |
| O=C(c1ccc(-n2ccc(C(F)(F)F)n2)cc1)N1CC(N2CCN(C(=O)c3cscn3)CC2)C1 [Cpd 1302] | 5.31 |  | pKd (mutant MGL; [2]): 5.60 |
| O=C(c1cscn1)N1CCN(C2CN(C(=O)c3nn(-c4ccc(Cl)cc4Cl)c4c3CCCC4)C2)CC1 [Cpd 1304] | 5.22 |  | pKd (mutant MGL; [6]): 5.10 |
